Legend:
[1] = molecular target: T1, WRN [UniPro: Q14191 (WRN_HUMAN), N500-C946] (Homo sapiens (Human), UniProt Q14191); experiment: WRN unwinding assay (FORKF DNA, fluorescence); type: biochemical; conditions: Table 14
[2] = molecular target: T1, WRN [UniPro: Q14191 (WRN_HUMAN), N500-C946]; experiment: WRN ATPase assay (ADP-Glo); type: biochemical; conditions: WRN enzymatic activity assay
Method: WRN ATPase assay was initiated to evaluate potential inhibitory effect of compounds for ATP hydrolysis activity of WRN protein. WRN [UniPro: Q14191 (WRN_HUMAN), N500-C946] was expressed and purified in insect system and stored at −80° C. in aliquots. […] ADP quantity produced from ATP hydrolysis by WRN catalytic reaction was measured using a commercially available ADP-Glo Assay (ADP-Glo™ Kinase Assay from Promega, 10000 assays, #V9102). […] Compounds dissolved in DMSO (Sigma, D8418) were plated into a 96-well intermediate plate (BioFil, VWP-032-096) for 3-fold serial titration for 10 points using DMSO, and well-to-well transfer the titrated compounds into another 96-well intermediate plate including assay buffer in advance. Shake the 96-well intermediate plate at 600 rpm for 10 min to fully mix. Specifically, a 4× working mixture of WRN was diluted to a concentration of 8 nM in assay buffer. […] After centrifuging at 1000 rpm and shaking at 500 rpm, the assay plate was pre-incubated for 30 min. Then, 5 μL 2×FORKF DNA and ATP working mixture was dispensed into assay plate. Plate was sealed, centrifuged and incubated for an additional 40 min. at 37° C. The reaction was stopped with the addition of 10 μL of the first ADP-Glo reagent and incubated for 40 min. to remove the excess amount of ATP. Afterwards, 20 μL of ATP detection reagent was added and incubated for 30 min. before reading. Luminescence output was recorded using BMG CLARIO star plus reader. Each concentration of compound was tested in duplicates in the assay plate. Average luminescence signal of high control (Wells with 1% DMSO) was calculated as High Control (HC). Average luminescence signal of low control (Wells with no WRN protein) was calculated as Low control (LC).
IC50 values were determined by fitting the data to the standard 4 parameters with Hill Slope using GraphPad Prism software.

T1 sequence (Q14191 500-946): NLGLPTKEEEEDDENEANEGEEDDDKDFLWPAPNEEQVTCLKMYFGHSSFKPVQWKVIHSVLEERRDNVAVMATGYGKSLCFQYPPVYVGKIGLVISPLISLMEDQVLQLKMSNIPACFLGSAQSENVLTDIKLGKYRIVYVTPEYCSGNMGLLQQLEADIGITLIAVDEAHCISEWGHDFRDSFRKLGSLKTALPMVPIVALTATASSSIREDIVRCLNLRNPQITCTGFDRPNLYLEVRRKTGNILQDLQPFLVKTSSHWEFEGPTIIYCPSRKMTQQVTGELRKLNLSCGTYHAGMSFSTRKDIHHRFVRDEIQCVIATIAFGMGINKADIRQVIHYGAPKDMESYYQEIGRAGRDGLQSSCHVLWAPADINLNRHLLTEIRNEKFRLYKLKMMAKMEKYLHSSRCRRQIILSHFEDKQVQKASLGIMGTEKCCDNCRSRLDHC

| Structure (SMILES) | IC50 [1] [µM] | IC50 [2] [µM] |
| --- | --- | --- |
| CCNC(=NCCCN(C)C)N1CCN(c2c(CC)n(CC(=O)Nc3ccc(C(F)(F)F)cc3C)c3nc(C4=CCOCC4)nn3c2=O)CC1 [Example 5, 2-(2-(3,6-Dihydro-2H-pyran-4-yl)-6-(4-(N′-(3-(dimethylamino)propyl)-N-ethylcarbamimidoyl)piperazin-1-yl)-5-ethyl-7-oxo-[1,2,4]triazolo[1,5-a]pyrimidin-4(7H)-yl)-N-(2-methyl-4-(trifluoromethyl)phenyl)acetamide] | > 1 | > 1 |
| CCc1c(N2CCN(C(=O)c3sc4cnccc4c3N)CC2)c(=O)n2nc(C3=CCOCC3)nc2n1CC(=O)Nc1ccc(C(F)(F)F)cc1Cl [Example 6, 2-(6-(4-(3-Aminothieno[2,3-c]pyridine-2-carbonyl)piperazin-1-yl)-2-(3,6-dihydro-2H-pyran-4-yl)-5-ethyl-7-oxo-[1,2,4]triazolo[1,5-a]pyrimidin-4(7H)-yl)-N-(2-chloro-4-(trifluoromethyl)phenyl)acetamide] | < 0.1 | 0.1 to 1 |
| CCc1c(N2CCN(c3nnc(C(F)F)s3)CC2)c(=O)n2nc(C3=CCOCC3)nc2n1CC(=O)Nc1ccc(C(F)(F)F)cc1Cl [Example 8, N-(2-Chloro-4-(trifluoromethyl)phenyl)-2-(6-(4-(5-(difluoromethyl)-1,3,4-thiadiazol-2-yl)piperazin-1-yl)-2-(3,6-dihydro-2H-pyran-4-yl)-5-ethyl-7-oxo-[1,2,4]triazolo[1,5-a]pyrimidin-4(7H)-yl)acetamide] | > 1 | > 1 |
| CCc1c(N2CCN(C(=O)c3cc(-c4cc(OC)ncc4F)[nH]n3)CC2)c(=O)n2nc(C3=CCOCC3)nc2n1CC(=O)Nc1ccc(C(F)(F)F)cc1Cl [Example 9, N-(2-Chloro-4-(trifluoromethyl)phenyl)-2-(2-(3,6-dihydro-2H-pyran-4-yl)-5-ethyl-6-(4-(5-(5-fluoro-2-methoxypyridin-4-yl)-1H-pyrazole-3-carbonyl)piperazin-1-yl)-7-oxo-[1,2,4]triazolo[1,5-a]pyrimidin-4(7H)-yl)acetamide] | > 1 | 0.1 to 1 |
| CCc1c(N2CCN(S(=O)(=O)CC)CC2)c(=O)n2nc(C3=CCOCC3)nc2n1CC(=O)Nc1ccc(C(F)(F)F)cc1Cl [Example 11, N-(2-Chloro-4-(trifluoromethyl)phenyl)-2-(2-(3,6-dihydro-2H-pyran-4-yl)-5-ethyl-6-(4-(ethylsulfonyl)piperazin-1-yl)-7-oxo-[1,2,4]triazolo[1,5-a]pyrimidin-4(7H)-yl)acetamide] | > 1 | 0.1 to 1 |
| CCc1c(N2CCN(C(=O)NS(=O)(=O)c3cnn(C)c3)CC2)c(=O)n2nc(C3=CCOCC3)nc2n1CC(=O)Nc1ccc(C(F)(F)F)cc1Cl [Example 14, 4-(4-(2-((2-Chloro-4-(trifluoromethyl)phenyl)amino)-2-oxoethyl)-2-(3,6-dihydro-2H-pyran-4-yl)-5-ethyl-7-oxo-4,7-dihydro-[1,2,4]triazolo[1,5-a]pyrimidin-6-yl)-N-((1-methyl-1H-pyrazol-4-yl)sulfonyl)piperazine-1-carboxamide] | < 0.1 | < 0.1 |
| CCc1c(N2CCN(C(=O)c3ncnc4cn[nH]c34)CC2)c(=O)n2nc(C3=CCOCC3)nc2n1CC(=O)Nc1ccc(C(F)(F)F)cc1Cl [Example 17, 2-(6-(4-(1H-Pyrazolo[4,3-d]pyrimidine-7-carbonyl)piperazin-1-yl)-2-(3,6-dihydro-2H-pyran-4-yl)-5-ethyl-7-oxo-[1,2,4]triazolo[1,5-a]pyrimidin-4(7H)-yl)-N-(2-chloro-4-(trifluoromethyl)phenyl)acetamide] | < 0.1 | < 0.1 |
| CCc1c(N2CCN(C(=O)Nc3[nH]ncc3C(F)(F)F)CC2)c(=O)n2nc(C3=CCOCC3)nc2n1CC(=O)Nc1ccc(C(F)(F)F)cc1Cl [Example 18, 4-(4-(2-((2-Chloro-4-(trifluoromethyl)phenyl)amino)-2-oxoethyl)-2-(3,6-dihydro-2H-pyran-4-yl)-5-ethyl-7-oxo-4,7-dihydro-[1,2,4]triazolo[1,5-a]pyrimidin-6-yl)-N-(4-(trifluoromethyl)-1H-pyrazol-5-yl)piperazine-1-carboxamide] | 0.1 to 1 | 0.1 to 1 |
| CCc1c(N2CCN(C(=O)c3[nH]ncc3C(F)(F)F)CC2)c(=O)n2nc(C3=CCOCC3)nc2n1CC(=O)Nc1ccc(C(F)(F)F)cc1Cl [Example 19, N-(2-Chloro-4-(trifluoromethyl)phenyl)-2-(2-(3,6-dihydro-2H-pyran-4-yl)-5-ethyl-7-oxo-6-(4-(4-(trifluoromethyl)-1H-pyrazole-5-carbonyl)piperazin-1-yl)-[1,2,4]triazolo[1,5-a]pyrimidin-4(7H)-yl)acetamide] | > 1 | > 1 |
| CCc1c(N2CCN(C(=O)c3n[nH]c(=O)[nH]c3=O)CC2)c(=O)n2nc(C3=CCOCC3)nc2n1CC(=O)Nc1ccc(C(F)(F)F)cc1Cl [Example 22, N-(2-Chloro-4-(trifluoromethyl)phenyl)-2-(2-(3,6-dihydro-2H-pyran-4-yl)-6-(4-(3,5-dioxo-2,3,4,5-tetrahydro-1,2,4-triazine-6-carbonyl)piperazin-1-yl)-5-ethyl-7-oxo-[1,2,4]triazolo[1,5-a]pyrimidin-4(7H)-yl)acetamide] | < 0.1 | < 0.1 |
| CCc1c(N2CCN(c3noc4cccnc34)CC2)c(=O)n2nc(C3=CCOCC3)nc2n1CC(=O)Nc1ccc(C(F)(F)F)cc1Cl [Example 23, N-(2-Chloro-4-(trifluoromethyl)phenyl)-2-(2-(3,6-dihydro-2H-pyran-4-yl)-5-ethyl-6-(4-(isoxazolo[4,5-b]pyridin-3-yl)piperazin-1-yl)-7-oxo-[1,2,4]triazolo[1,5-a]pyrimidin-4 (7H)-yl)acetamide] | > 1 | > 1 |
| CCc1c(N2CCN(C(=O)NS(=O)(=O)CC)CC2)c(=O)n2nc(C3=CCOCC3)nc2n1CC(=O)Nc1ccc(C(F)(F)F)cc1Cl [Example 25, 4-(4-(2-((2-Chloro-4-(trifluoromethyl)phenyl)amino)-2-oxoethyl)-2-(3,6-dihydro-2H-pyran-4-yl)-5-ethyl-7-oxo-4,7-dihydro-[1,2,4]triazolo[1,5-a]pyrimidin-6-yl)-N-(ethylsulfonyl)piperazine-1-carboxamide] | < 0.1 | < 0.1 |
| CCC(=O)N1CCN(c2c(CC)n(CC(=O)Nc3ccc(C(F)(F)F)cc3Cl)c3nc(C4=CCOCC4)nn3c2=O)CC1 [Example 27, N-(2-Chloro-4-(trifluoromethyl)phenyl)-2-(2-(3,6-dihydro-2H-pyran-4-yl)-5-ethyl-7-oxo-6-(4-propionylpiperazin-1-yl)-[1,2,4]triazolo[1,5-a]pyrimidin-4(7H)-yl)acetamide] | < 0.1 | 0.1 to 1 |
| CCc1c(N2CCN(S(N)(=O)=O)CC2)c(=O)n2nc(C3=CCOCC3)nc2n1CC(=O)Nc1ccc(C(F)(F)F)cc1Cl [Example 28, N-(2-Chloro-4-(trifluoromethyl)phenyl)-2-(2-(3,6-dihydro-2H-pyran-4-yl)-5-ethyl-7-oxo-6-(4-sulfamoylpiperazin-1-yl)-[1,2,4]triazolo[1,5-a]pyrimidin-4(7H)-yl)acetamide] | 0.1 to 1 | 0.1 to 1 |
| CCC(=O)NS(=O)(=O)N1CCN(c2c(CC)n(CC(=O)Nc3ccc(C(F)(F)F)cc3Cl)c3nc(C4=CCOCC4)nn3c2=O)CC1 [Example 29, N-((4-(4-(2-((2-Chloro-4-(trifluoromethyl)phenyl)amino)-2-oxoethyl)-2-(3,6-dihydro-2H-pyran-4-yl)-5-ethyl-7-oxo-4,7-dihydro-[1,2,4]triazolo[1,5-a]pyrimidin-6-yl)piperazin-1-yl)sulfonyl) propionamide] | < 0.1 | < 0.1 |
| CCc1c(N2CCN(C(=O)Nc3[nH]cnc3C(F)(F)F)CC2)c(=O)n2nc(C3=CCOCC3)nc2n1CC(=O)Nc1ccc(C(F)(F)F)cc1Cl [Example 30, 4-(4-(2-((2-Chloro-4-(trifluoromethyl)phenyl)amino)-2-oxoethyl)-2-(3,6-dihydro-2H-pyran-4-yl)-5-ethyl-7-oxo-4,7-dihydro-[1,2,4]triazolo[1,5-a]pyrimidin-6-yl)-N-(4-(trifluoromethyl)-1H-imidazol-5-yl)piperazine-1-carboxamide] | < 0.1 | 0.1 to 1 |
| CCc1c(N2CCN(C(=O)c3[nH]cnc3C(F)(F)F)CC2)c(=O)n2nc(C3=CCOCC3)nc2n1CC(=O)Nc1ccc(C(F)(F)F)cc1Cl [Example 31, N-(2-Chloro-4-(trifluoromethyl)phenyl)-2-(2-(3,6-dihydro-2H-pyran-4-yl)-5-ethyl-7-oxo-6-(4-(4-(trifluoromethyl)-1H-imidazole-5-carbonyl)piperazin-1-yl)-[1,2,4]triazolo[1,5-a]pyrimidin-4(7H)-yl)acetamide] | < 0.1 | 0.1 to 1 |

From patent publication US20260015358A1, “BICYCLIC DERIVATIVES, COMPOSITIONS AND USES THEREOF” (Danatlas Pharmaceuticals Co., Ltd., priority 2023, published 2026)
